This assay has as its target T1, SIRT1 (Homo sapiens, UniProt Q96EB6).
T1 sequence (Q96EB6 1-747): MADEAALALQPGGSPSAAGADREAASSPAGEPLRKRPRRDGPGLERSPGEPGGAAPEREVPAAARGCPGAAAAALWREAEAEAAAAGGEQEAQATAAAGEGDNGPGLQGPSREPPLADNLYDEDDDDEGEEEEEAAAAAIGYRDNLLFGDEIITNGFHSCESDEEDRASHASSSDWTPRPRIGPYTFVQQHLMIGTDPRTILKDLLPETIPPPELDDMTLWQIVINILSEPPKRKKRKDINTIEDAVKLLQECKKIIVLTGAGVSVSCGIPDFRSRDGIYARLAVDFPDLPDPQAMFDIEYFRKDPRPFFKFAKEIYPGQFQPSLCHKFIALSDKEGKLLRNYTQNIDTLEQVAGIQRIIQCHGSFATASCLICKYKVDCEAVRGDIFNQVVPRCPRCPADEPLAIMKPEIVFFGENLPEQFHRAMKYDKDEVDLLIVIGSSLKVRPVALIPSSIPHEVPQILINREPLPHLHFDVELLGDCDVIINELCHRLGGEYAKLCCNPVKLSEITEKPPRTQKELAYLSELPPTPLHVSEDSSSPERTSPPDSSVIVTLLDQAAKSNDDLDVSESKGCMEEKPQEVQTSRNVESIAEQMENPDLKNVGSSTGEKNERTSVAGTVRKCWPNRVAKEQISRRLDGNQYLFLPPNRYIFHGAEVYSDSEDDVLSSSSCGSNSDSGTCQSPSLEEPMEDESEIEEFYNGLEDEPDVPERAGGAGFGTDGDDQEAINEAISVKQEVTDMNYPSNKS
As to the kind of experiment: Mass spectrometry based SIRT1 deacetylation assay (activation). In kind it is biochemical. The following applies: 10 nM SIRT1, 0.5 μM peptide substrate, 120 μM βNAD+, 25 min at 25° C. The text has this:
A mass spectrometry based assay was used to identify modulators of SIRT1 activity. The mass spectrometry based assay utilizes a peptide having 20 amino acid residues as follows: Ac-EE-K (biotin)-GQSTSSHSK (Ac)N1eSTEG-K(5TMR)-EE-NH2 (SEQ ID NO: 1) wherein K(Ac) is an acetylated lysine residue and Nle is a norleucine. The peptide is labeled with the fluorophore 5TMR (excitation 540 nm/emission 580 nm) at the C-terminus. The sequence of the peptide substrate is based on p53 with several modifications. In addition, the methionine residue naturally present in the sequence was replaced with the norleucine because the methionine may be susceptible to oxidation during synthesis and purification.
The mass spectrometry assay is conducted as follows: 0.5 μM peptide substrate and 120 μM βNAD^+ is incubated with 10 nM SIRT1 for 25 minutes at 25° C. in a reaction buffer (50 mM Tris-acetate pH 8, 137 mM NaCl, 2.7 mM KCl, 1 mM MgCl2, 5 mM DTT, 0.05% BSA). Test compounds may be added to the reaction as described above. The SirT1 gene is cloned into a T7-promoter containing vector and transformed into BL21(DE3). After the 25 minute incubation with SIRT1, 10 μL of 10% formic acid is added to stop the reaction. Reactions are sealed and frozen for later mass spec analysis. Determination of the mass of the substrate peptide allows for precise determination of the degree of acetylation (i.e. starting material) as compared to deacetylated peptide (product).
A control for inhibition of sirtuin activity is conducted by adding 1 μL of 500 mM nicotinamide as a negative control at the start of the reaction (e.g., permits determination of maximum sirtuin inhibition). A control for activation of sirtuin activity is conducted using 10 nM of sirtuin protein, with 1 μL of DMSO in place of compound, to determine the amount of deacetylation of the substrate at a given timepoint within the linear range of the assay. This timepoint is the same as that used for test compounds and, within the linear range, the endpoint represents a change in velocity.
For the above assay, SIRT1 protein was expressed and purified as follows. The SirT1 gene was cloned into a T7-promoter containing vector and transformed into BL21(DE3). The protein was expressed by induction with 1 mM IPTG as an N-terminal His-tag fusion protein at 18° C. overnight and harvested at 30,000×g. Cells were lysed with lysozyme in lysis buffer (50 mM Tris-HCl, 2 mM Tris[2-carboxyethyl]phosphine (TCEP), 10 μM ZnCl2, 200 mM NaCl) and further treated with sonication for 10 min for complete lysis. The protein was purified over a Ni-NTA column (Amersham) and fractions containing pure protein were pooled, concentrated and run over a sizing column (Sephadex S200 26/60 global). The peak containing soluble protein was collected and run on an Ion-exchange column (MonoQ). Gradient elution (200 mM-500 mM NaCl) yielded pure protein. This protein was concentrated and dialyzed against dialysis buffer (20 mM Tris-HCl, 2 mM TCEP) overnight. The protein was aliquoted and frozen at −80° C. until further use.
Sirtuin modulating compounds that activated SIRT1 were identified using the assay described above and are shown below in Table 1. The EC1.5 values represent the concentration of test compounds that result in 150% activation of SIRT1. The EC1.5 values for the activating compounds are represented by A (EC1.5<1.0 uM), B (EC1.5 1-25 uM), C (EC1.5>25 uM). The percent maximum fold activation is represented by A (Fold activation >200%) or B (Fold Activation <200%). “NT” indicates the compound was not tested in a particular assay.
Regarding `Cc1cc(NC(=O)c2cccc3ccc(-c4cccc(C(F)(F)F)c4)nc23)sn1` [Compound 59], the “% Fold Act. (percent maximum fold activation)” value is on record as “A (Fold activation >200%)” and the “EC1.5 (concentration of test compound that results in 150% activation of SIRT1)” value was “A (EC1.5<1.0 uM)”.
The like results for `O=C(Nc1ccnc(Cl)c1)c1cccc2ccc(-c3cccc(C(F)(F)F)c3)nc12` [Compound 60] were, in that order, “A (Fold activation >200%)” and “A (EC1.5<1.0 uM)”.
The corresponding values for `COC(=O)c1ccc(NC(=O)c2cccc3ccc(-c4cccc(C(F)(F)F)c4)nc23)o1` [Compound 61] are “A (Fold activation >200%)” and “A (EC1.5<1.0 uM)”.
On to `O=C(Nc1nccs1)c1cc(F)cc2ccc(-c3cccc(C(F)(F)F)c3)nc12` [Compound 62], for which the “EC1.5 (concentration of test compound that results in 150% activation of SIRT1)” value is recorded as “C (EC1.5>25 uM)”.
On the same count and under the same terms, the same measure for `O=C(Nc1cccnc1)c1cc(F)cc2ccc(-c3cccc(C(F)(F)F)c3)nc12` [Compound 63]: “C (EC1.5>25 uM)”; for `Cc1cc(-c2ccc3cccc(C(=O)Nc4ccccn4)c3n2)no1` [Compound 64]: “C (EC1.5>25 uM)”.
The same measure, in the same setting: the same measure for `FC(F)(F)Oc1cccc(-c2ccc3cccc(NCc4ccccn4)c3n2)c1` [Compound 65]: “C (EC1.5>25 uM)”; for `O=C(Nc1nccs1)c1ccc(F)c2ccc(-c3cccc(C(F)(F)F)c3)nc12` [Compound 66]: “C (EC1.5>25 uM)”.
`O=C(Nc1cccnc1)c1ccc(F)c2ccc(-c3cccc(C(F)(F)F)c3)nc12` [Compound 67]: the “% Fold Act. (percent maximum fold activation)” value is listed as “A (Fold activation >200%)” and the “EC1.5 (concentration of test compound that results in 150% activation of SIRT1)” value was “A (EC1.5<1.0 uM)”.
For `Cc1cc(-c2ccc3cccc(C(=O)Nc4cccnc4)c3n2)no1` [Compound 68], the “EC1.5 (concentration of test compound that results in 150% activation of SIRT1)” value is listed as “C (EC1.5>25 uM)”.
The same measure, in the same setting: for `Cc1cc(-c2ccc3cccc(C(=O)Nc4nccs4)c3n2)no1` [Compound 69] the value was “C (EC1.5>25 uM)”; for `Cc1cc(-c2ccc3cccc(C(=O)Nc4ccncn4)c3n2)no1` [Compound 70], “C (EC1.5>25 uM)”.
On to `O=C(NC1CCNCC1)c1cccc2ccc(-c3cccc(C(F)(F)F)c3)nc12` [Compound 71], for which the “% Fold Act. (percent maximum fold activation)” value is “A (Fold activation >200%)” and the “EC1.5 (concentration of test compound that results in 150% activation of SIRT1)” value is recorded as “B (EC1.5 1-25 uM)”.
The like results for `O=C(N[C@H]1CCNC1)c1cccc2ccc(-c3cccc(C(F)(F)F)c3)nc12` [Compound 72] were, in that order, “B (Fold Activation <200%)” and “C (EC1.5>25 uM)”.
The corresponding values for `Cc1cc(NC(=O)c2cccc3ccc(-c4cccc(C(F)(F)F)c4)nc23)no1` [Compound 73] are “B (Fold Activation <200%)” and “B (EC1.5 1-25 uM)”.
As for `O=C(Nc1cccc2ccc(-c3cccc(F)c3)nc12)c1cscn1` [Compound 74], the “% Fold Act. (percent maximum fold activation)” value was “B (Fold Activation <200%)” and the “EC1.5 (concentration of test compound that results in 150% activation of SIRT1)” value is “B (EC1.5 1-25 uM)”.
As for `O=C(Nc1cccc2ccc(-c3ccccc3F)nc12)c1cscn1` [Compound 75], the “% Fold Act. (percent maximum fold activation)” value is on record as “A (Fold activation >200%)” and the “EC1.5 (concentration of test compound that results in 150% activation of SIRT1)” value is listed as “B (EC1.5 1-25 uM)”.
The corresponding values for `O=C(Nc1cccc2ccc(-c3cccnc3)nc12)c1cscn1` [Compound 76] are “A (Fold activation >200%)” and “A (EC1.5<1.0 uM)”.
The like results for `O=C(Nc1cccc2ccc(-c3ccncc3)nc12)c1cscn1` [Compound 77] were, in that order, “A (Fold activation >200%)” and “A (EC1.5<1.0 uM)”.
Turning to `O=C(Nc1cccc2ccc(-c3cc(F)cc(F)c3)nc12)c1cscn1` [Compound 78], the “EC1.5 (concentration of test compound that results in 150% activation of SIRT1)” value is recorded as “C (EC1.5>25 uM)”.
For `Cc1cccc(-c2ccc3cccc(NC(=O)c4cscn4)c3n2)c1` [Compound 79], the “% Fold Act. (percent maximum fold activation)” value is “B (Fold Activation <200%)” and the “EC1.5 (concentration of test compound that results in 150% activation of SIRT1)” value is recorded as “A (EC1.5<1.0 uM)”.
Take `N#Cc1cccc(-c2ccc3cccc(NC(=O)c4cscn4)c3n2)c1` [Compound 80]: the “EC1.5 (concentration of test compound that results in 150% activation of SIRT1)” value is “C (EC1.5>25 uM)”.
As to `CS(=O)(=O)c1cccc(-c2ccc3cccc(NC(=O)c4cscn4)c3n2)c1` [Compound 81], the “% Fold Act. (percent maximum fold activation)” value is “A (Fold activation >200%)” and the “EC1.5 (concentration of test compound that results in 150% activation of SIRT1)” value is given as “A (EC1.5<1.0 uM)”.
The like results for `Cc1noc(NC(=O)c2cccc3ccc(-c4cccc(C(F)(F)F)c4)nc23)c1C` [Compound 82] were, in that order, “A (Fold activation >200%)” and “B (EC1.5 1-25 uM)”.
`O=C(Nc1nccs1)c1c(F)ccc2ccc(-c3cccc(C(F)(F)F)c3)nc12` [Compound 83]: the “% Fold Act. (percent maximum fold activation)” value is on record as “A (Fold activation >200%)” and the “EC1.5 (concentration of test compound that results in 150% activation of SIRT1)” value was “B (EC1.5 1-25 uM)”.
The like results for `O=C(Nc1nccs1)c1cccc2ccc(-c3ccccc3C(F)(F)F)nc12` [Compound 84] were, in that order, “A (Fold activation >200%)” and “B (EC1.5 1-25 uM)”.
The corresponding values for `O=C(Nc1ccccn1)c1cccc2ccc(-c3ccccc3C(F)(F)F)nc12` [Compound 85] are “B (Fold Activation <200%)” and “B (EC1.5 1-25 uM)”.
The like results for `O=C(Nc1cccnc1)c1cccc2ccc(-c3ccccc3C(F)(F)F)nc12` [Compound 86] were, in that order, “A (Fold activation >200%)” and “B (EC1.5 1-25 uM)”.
On to `O=C(Nc1ccncn1)c1cccc2ccc(-c3ccccc3C(F)(F)F)nc12` [Compound 87], for which the “% Fold Act. (percent maximum fold activation)” value was “A (Fold activation >200%)” and the “EC1.5 (concentration of test compound that results in 150% activation of SIRT1)” value was “A (EC1.5<1.0 uM)”.
Regarding `O=C(NC1CN2CCC1CC2)c1cccc2ccc(-c3cccc(C(F)(F)F)c3)nc12` (stereo not shown) [Compound 88], the “EC1.5 (concentration of test compound that results in 150% activation of SIRT1)” value is reported as “C (EC1.5>25 uM)”.

Source of the values: patent publication US8685970B2, “Quinolines and related analogs as sirtuin modulators” (GlaxoSmithKline, LLC, priority 2008, dated 2014).
